Data reported in patent US20230339882A1, “SHP2 INHIBITOR AND COMPOSITION AND APPLICATION THEREOF” (Betta Pharmaceuticals Co., Ltd., priority 2020, published 2023).

Assays:
SHP2 = SHP2 (Homo sapiens (Human), UniProt Q06124); experiment: SHP2 allosteric inhibitory enzyme activity assay (DiFMUP fluorescence); assay type: biochemical; settings: read-out: SHP2 enzymatic activity IC50
Excerpt: Example A: SHP2 Allosteric Inhibitory Enzyme Activity Assay
SHP2 is allosterically activated by binding of a bis-tyrosyl-phosphorylated peptide to its Src homology 2 (SH2) domain. This later activation step results in the release of the autoinhibitory interface of SHP2, which in turn activates the SHP2 protein tyrosine phosphatase (PTP) and is available for substrate recognition and reaction catalysis. The catalytic activity of SHP2 was monitored using the surrogate DiFMUP in a rapid fluorescence assay format.
experiment procedure: • (1) Compound preparation: • The compounds of the present invention (10 mM stock solution) were diluted to appropriate times with 100% DMSO, and the final test concentrations of the compounds of the present invention were 10 µM, 3.3333 µM, 1.1111 µM, 0.3704 µM, 0.1235 µM, 0.0412 µM, 0.0137 µM, 0.0046 µM, 0.0015 µM, 0.00 µM; • (2) Prepare the enzyme reaction working solution: • Perform SHP2 enzymatic assays in 96-well black polystyrene plates (flat bottom, low flange, non-binding surface) (Perki Elmer, Cat#6005270) at room temperature using a final reaction volume of 50 µL and the following assay buffer conditions: 60 mM HEPES, 75 mM NaCl, 75 mM KCl, 0.05% BRIJ-35, 1 mM EDTA, 5 mM DTT. • (3) Enzyme-catalyzed reaction and data monitoring: • Add the compound of the present invention to the corresponding 96-well plate, and set the blank test well without compound and enzyme only with buffer. Thaw SHP2 Activating Peptide (IRS1_pY1172(dPEG8)pY1222) on ice, add 25 µM to each well, then add 0.2 ng of SHP2 protein sample to the corresponding well plate and incubate at room temperature for 1 hour. The surrogate substrate DiFMUP (Invitrogen, Cat #D6567) was added to the reaction and allowed to react for 1 hour at room temperature. Fluorescence signals were monitored using a microplate reader (Envision, Perki Elmer) using excitation and emission wavelengths of 340 nm and […], respectively. • (4) Data analysis: • Calculation Formula: • [formula]
Among them: Conversion_sample is the conversion rate reading of the sample; Conversion_min is the average value of blank control wells, representing the conversion rate readings of wells without enzymatic activity; Conversion_max is the mean ratio of positive control wells, representing the conversion rate readings of wells without compound inhibition. The log(inhibitor) vs. response-Variable slope of the analysis software GraphPad Prism was used to fit the dose-response curve, and the IC50 value of the compound for the enzymatic activity was calculated.

leukemia cells MV-4-11 = experiment: Cell proliferation assay, CELL TITER-GLO (CTG) luminescence, MV-4-11; assay type: cell-based
Method: (§1) Example B: Cell Proliferation Assay
(§2) The effects of the compounds of the invention on the proliferation of leukemia cells MV-4-11 and lung cancer cells NCI-H358 were evaluated using in vitro cell assays. The detection method used in the experiment is the CELL TITER-GLO (CTG) luminescence method, which can detect the number of viable cells by quantifying ATP. Because ATP participates in a variety of enzymatic reactions in vivo, it is an indicator of the metabolism of living cells, and its content directly reflects the number and state of cells. During the experiment, CellTiter-Glo™ reagent was added to the cell culture medium to measure the luminescence value. The value is proportional to the amount of ATP, and ATP is positively related to the number of living cells, so the cell viability can be examined by detecting the ATP content.
(§3) experiment procedure: • (1) Cell plating: • Take a bottle of MV-4-11 cells in logarithmic growth phase, resuspend the cells by centrifugation and count them. After adjusting the cell density, they were seeded into a 96-well plate (Corning #3917). After culturing in a 5% CO2 incubator for 24 hrs, the compound of the present invention was added for treatment; • Take a bottle of NCI-H358 cells in logarithmic growth phase, digest and resuspend the cells, count them, adjust the cell density, and inoculate them into a 96-well transparent ultra-low adsorption cell culture plate (Corning #3474), inoculate 2000 cells per well. The plate was placed in an incubator at 37° C. and 5% CO2 for 24 hrs, and then the compound of the present invention was added for treatment; • (2) Cell compound treatment: • An appropriate amount of the compound of the present invention was prepared for cell treatment. The final concentration of the compound from high to low was 1000 nM, 333.3 nM, 111.1 nM, 37.04 nM, 12.35 nM, 4.115 nM, 1.372 nM, 0.4572 nM, 0.1524 nM, and 0 nM. The plate was placed in a 37° C., 5% CO2 incubator for 120 hrs. Only adding medium without cell wells was set as the blank group; the group with compound concentration of 0 nM was the zero-adjusting group. • (3) CTG detection: • After NCI-H358 cells were cultured for 96 hrs, 50 µL of CellTiter-Glo® Luminescent Cell Viability Assay solution was added to each well, shaken gently for 2 mins, and incubated at room temperature for 10 mins. The cell reaction system was transferred to a white-bottomed 96-well plate. Read the detection value of each well on a multi-function microplate reader. • After MV-4-11 cells were cultured for 120 hrs, 50 µL of CellTiter-Glo® Luminescent Cell Viability Assay solution was added to each well, gently shaken for 2 mins, and incubated at room temperature for 10 mins. Check the value. • (4) Data analysis: • Calculate the inhibition rate from the luminescence value readings, • [formula]
(§4) The log(inhibitor) vs. response-Variable slope of GraphPad Prism was fitted to dose-response curves and IC50s of compounds that inhibited cell proliferation were calculated.

[1] = tested on: lung cancer cells NCI-H358; experiment: Cell proliferation assay, CELL TITER-GLO (CTG) luminescence, NCI-H358; assay type: cell-based; settings: cultured for 96 hrs
Method: as §1, §2, §3, §4

[2] = Homo sapiens, MV4-11, cultured for 120 hrs
[3] = Homo sapiens, NCI-H358, ultra-low adsorption plate

SHP2, sequence (Q06124 whole entry): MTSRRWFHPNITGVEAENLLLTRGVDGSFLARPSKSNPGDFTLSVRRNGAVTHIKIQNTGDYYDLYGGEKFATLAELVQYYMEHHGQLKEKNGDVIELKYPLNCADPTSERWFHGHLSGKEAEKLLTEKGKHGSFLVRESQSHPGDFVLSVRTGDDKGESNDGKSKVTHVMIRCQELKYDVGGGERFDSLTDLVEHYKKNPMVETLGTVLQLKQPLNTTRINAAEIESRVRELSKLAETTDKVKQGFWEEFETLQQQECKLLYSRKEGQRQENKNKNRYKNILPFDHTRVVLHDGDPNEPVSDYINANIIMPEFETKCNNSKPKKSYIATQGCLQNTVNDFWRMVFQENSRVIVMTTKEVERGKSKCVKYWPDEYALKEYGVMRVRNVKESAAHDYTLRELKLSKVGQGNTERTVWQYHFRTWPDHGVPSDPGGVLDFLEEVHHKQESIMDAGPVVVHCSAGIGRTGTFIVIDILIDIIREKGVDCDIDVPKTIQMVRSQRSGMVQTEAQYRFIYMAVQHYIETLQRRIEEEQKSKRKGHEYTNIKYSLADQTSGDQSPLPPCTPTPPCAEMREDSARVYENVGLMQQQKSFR

Row | SMILES | IC50 (SHP2) | IC50 (leukemia cells MV-4-11; [2]) | IC50 [1, 3] | IC50 (leukemia cells MV-4-11; cultured for 120 hrs) | IC50 ([1]; ultra-low adsorption plate)
1 | CC(=O)Nc1ccc(OCC#Cc2cnc(N3CCC4(CC3)Cc3ccccc3[C@H]4N)c(CO)n2)cc1 [Compound A08, (S)-N-(4-((3-(5-(1-amino-1,3-dihydrospiro [indene-2,4′-piperidine]-1′-yl) -6-(hydroxymethyl)pyrazin-2-yl)prop-2-yn-1-yl)oxy)phenyl) acetamide] | 3.3 nM | 2.1 nM | 3.8 nM | – | –
2 | COc1ccc(OCC#Cc2cnc(N3CCC4(CC3)Cc3ccccc3[C@H]4N)c(CO)n2)cc1 [Compound A09, (S)-(3-(1-amino-1,3-dihydrospiro [indene-2,4′-piperidine]-1′-yl)-6-(3-(4-methoxyphenoxy)prop-1-yn-1-yl)pyrazin-2-yl) methanol] | 0.9 nM | 2.6 nM | 4.9 nM | – | –
3 | CC(=O)N1CCN(c2ccc(OCC#Cc3cnc(N4CCC5(CC4)Cc4ccccc4[C@H]5N)c(CO)n3)cc2)CC1 [Compound A21, (S)-1-(4-(4-(3-(5-(1-amino-1,3-dihydrospiro [indene-2,4 ‘-piperidine]-1′-yl) -6-(hydroxymethyl)pyrazin-2-yl)prop-2-yn-1-yl)oxy)piperazin-1-yl)ethane-1-one] | 2.1 nM | – | – | 11 nM | 12 nM
4 | COc1ccc(NCC#Cc2cnc(N3CCC4(CC3)Cc3ccccc3[C@H]4N)c(CO)n2)cc1OC [Compound A47, (S)-(3-(1-amino-1,3-dihydrospiro [indene-2,4′-piperidin]-1′-yl)-6-(3-((3,4-dimethoxyphenyl)amino)prop-1-yn-1-yl)pyrazin-2-yl)] | 4 nM | – | – | 17 nM | 48 nM
5 | COc1cc(OCC#Cc2cnc(N3CCC4(CC3)Cc3ccccc3[C@H]4N)c(CO)n2)ccn1 [Compound A49, (S)-(3-(1-amino-1,3-dihydrospiro[indene-2,4′-piperidin]-1′-yl)-6-(3-((2-methoxypyridine-4-yl)oxy)prop-1-yn-1-yl)pyrazin-2-yl)methanol] | 1.4 nM | 6.7 nM | 8.5 nM | – | –
6 | N[C@@H]1c2ccccc2CC12CCN(c1ncc(C#CCOc3ccc4c(c3)CCNC4=O)nc1CO)CC2 [Compound A52, (S)-6-((3-(5-(1-amino-1,3-dihydrospiro[indene-2,4′-piperidin]-1′-yl)-6-(hydroxymethyl)pyrazin-2-yl)prop-2-yn-1-yl)oxy)-3,4-dihydroisoquinolin-1(2H)-one] | 1.6 nM | 1.5 nM | 4.6 nM | – | –
7 | N#Cc1cccc(OCC#Cc2cnc(N3CCC4(CC3)Cc3ccccc3[C@H]4N)c(CO)n2)c1 [Compound A53, (S)-3-((3-(5-(1-amino-1,3-dihydrospiro[indene-2,4′-piperidin]-1′-yl)-6-(hydroxymethyl)pyrazin-2-yl)prop-2-yn-1-yl)oxy)benzonitrile] | 3.3 nM | 8.1 nM | 27 nM | – | –
8 | COc1ccc2c(c1)[C@@H](N)C1(CCN(c3ncc(C#CCOc4ccc(C(N)=O)cc4)nc3CO)CC1)C2 [Compound A58, (S)-4-((3-(5-(1-amino-6-methoxy-1,3-dihydrospiro[indene-2,4′-piperidin]-1′-yl)-6-(hydroxymethyl)pyrazin-2-yl)prop-2-yn-1-yl)oxy)benzamide] | 1.5 nM | 0.8 nM | 4 nM | – | –
9 | N[C@@H]1c2ccccc2CC12CCN(c1ncc(C#CCNc3ccc(C(F)(F)F)nc3)nc1CO)CC2 [Compound A63, (S)-(3-(1-amino-1,3-dihydrospiro[indene-2,4′-piperidin]-1′-yl)-6-(3-( (6-(trifluoromethyl)pyridin-3-yl)amino)prop-1-yn-1-yl)pyrazin-2-yl)methanol] | 5 nM | 11 nM | 36 nM | – | –
10 | CC(=O)Nc1cccc(NCC#Cc2cnc(N3CCC4(CC3)Cc3ccccc3[C@H]4N)c(CO)n2)c1 [Compound A65, (S)-N-(3-((3-(5-(1-amino-1,3-dihydrospiro[indene-2,4′-piperidin]-1′-yl)-6-(hydroxylmethyl)pyrazin-2-yl)prop-2-yn-1-yl)amino)phenyl)a cetamide] | 3.5 nM | 2.8 nM | 25 nM | – | –
11 | CNc1ncc(OCC#Cc2cnc(N3CCC4(CC3)Cc3ccccc3[C@H]4N)c(CO)n2)cn1 [Compound A68, (S)-(3-(1-amino-1,3-dihydrospiro[indene-2,4′-piperidin]-1′-yl)-6-(3-( (2-(methylAmino)pyrimidin-5-yl)oxy)prop-1-yn-1-yl)pyrazin-2-yl) methanol] | 2.1 nM | 8.6 nM | 26 nM | – | –
12 | Cc1nc2cc(OCC#Cc3cnc(N4CCC5(CC4)Cc4ccccc4[C@H]5N)c(CO)n3)ccc2[nH]1 [Compound A73, (S)-(3-(1-amino-1,3-dihydrospiro[indene-2,4′-piperidin]-1′-yl)-6-(3-( (2-methyl-1H-Benzo[d]imidazol-5-yl)oxy)prop-1-yn-1-yl)pyrazin-2-yl)methanol] | 3.1 nM | 1.1 nM | 3.4 nM | – | –
13 | Cc1cc(OCC#Cc2cnc(N3CCC4(CC3)Cc3ccccc3[C@H]4N)c(CO)n2)ccc1C(N)=O [Compound A74, (S)-4-((3-(5-(1-amino-1,3-dihydrospiro[indene-2,4′-piperidin]-1′-yl)-6-(hydroxymethyl)pyrazin-2-yl)prop-2-yn-1-yl)oxy)-2-methylbenzamide] | 1.1 nM | 1.7 nM | 6.4 nM | – | –
14 | N[C@@H]1c2ccccc2CC12CCN(c1ncc(C#CCOc3ccc(O)cn3)nc1CO)CC2 [Compound A75, (S)-6-((3-(5-(1-amino-1,3-dihydrospiro[indene-2,4′-piperidin]-1′-yl)-6-(hydroxymethyl)pyrazin-2-yl)prop-2-yn-1-yl)oxy)pyridin-3-ol] | 7.8 nM | 7.3 nM | 78 nM | – | –
15 | N[C@@H]1c2ccccc2CC12CCN(c1ncc(C#CCOc3ccc(C(=O)NC4CC4)cc3)nc1CO)CC2 [Compound A76, (S)-4-((3-(5-(1-amino-1,3-dihydrospiro[indene-2,4′-piperidin]-1′-yl)-6-(hydroxymethyl)pyrazin-2-yl)prop-2-yn-1-yl)oxy)-N-cyclopropyl benzamide] | 3.4 nM | – | – | 3.3 nM | 19 nM
16 | Cn1nccc1Nc1ccc(OCC#Cc2cnc(N3CCC4(CC3)Cc3ccccc3[C@H]4N)c(CO)n2)cc1 [Compound A77] | 5.9 nM | – | – | 11 nM | 36 nM
